We go through 1 compound from patent US20220016154A1, “TREATMENT OF NEURONAL MOSAICISM IN DEMENTIA” (Crownview Medical Group, Inc., priority 2020, published 2022).

Test [1] concerns patient with advanced dementia. Description: Case report: dementia patient administered a regimen of ZDV (Retrovir), clinical observation and SMMSE. Type of test: in vivo, human. The following applies: one patient, SMMSE 2 to 4 before treatment; after 8 weeks of treatment.
In the next test the test system is HIV-associated dementia. The note with it: HIV patients, antiretroviral therapy; cited from earlier work.

`Cc1cn([C@H]2C[C@H](N=[N+]=[N-])[C@@H](CO)O2)c(=O)[nH]c1=O` [Zidovudine]: in test [1], the SMMSE scores entry is on record as “not consistently improved”; the “ability to remember and communicate about where they lived” value was “specific improvements in their ability to remember and communicate about where they lived”; the “alertness and awareness of surroundings” value was “more alert and aware of their surroundings”. For the same compound, the “progression of HIV-associated dementia” value with HIV-associated dementia is “slowed”.
